Laboratory results published in PMC12951562, “SH2scan: Mapping SH2 Domain-Ligand Binding Selectivity for Inhibitors and Degraders” (Journal of Medicinal Chemistry, 2026).
Non-standard residues stand in square brackets, D forms with d. Residues, ends and D or L forms follow the SMILES beside them. pY = N[C@@H](Cc1ccc(OP(=O)(O)O)cc1)C(=O)O

Key:
Assay in all cases: biochemical
Format in all cases: binding
CRKL = biological target: T1, CRKL (Homo sapiens, UniProt P46109)
T1 construct: the DNA-tagged SH2 domain concentrations used in this study were <0.1 nM; made in house; host or cells: HEK293 (transient transfection; unpurified extract)
T1 sequence (P46109 14-102 limits assumed): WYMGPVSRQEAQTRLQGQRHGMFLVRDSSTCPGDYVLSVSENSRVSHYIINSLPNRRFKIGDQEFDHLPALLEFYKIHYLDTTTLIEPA

NCK1 = biological target: T2, NCK1 (Homo sapiens, UniProt P16333)
T2 construct: the DNA-tagged SH2 domain concentrations used in this study were <0.1 nM; made in house; host or cells: HEK293 (transient transfection, unpurified extract)

TEC = biological target: T3, TEC (Homo sapiens, UniProt P42680)
T3 construct: made in house; host or cells: HEK293 (transient transfection), unpurified extract
T3 sequence (P42680 1-631): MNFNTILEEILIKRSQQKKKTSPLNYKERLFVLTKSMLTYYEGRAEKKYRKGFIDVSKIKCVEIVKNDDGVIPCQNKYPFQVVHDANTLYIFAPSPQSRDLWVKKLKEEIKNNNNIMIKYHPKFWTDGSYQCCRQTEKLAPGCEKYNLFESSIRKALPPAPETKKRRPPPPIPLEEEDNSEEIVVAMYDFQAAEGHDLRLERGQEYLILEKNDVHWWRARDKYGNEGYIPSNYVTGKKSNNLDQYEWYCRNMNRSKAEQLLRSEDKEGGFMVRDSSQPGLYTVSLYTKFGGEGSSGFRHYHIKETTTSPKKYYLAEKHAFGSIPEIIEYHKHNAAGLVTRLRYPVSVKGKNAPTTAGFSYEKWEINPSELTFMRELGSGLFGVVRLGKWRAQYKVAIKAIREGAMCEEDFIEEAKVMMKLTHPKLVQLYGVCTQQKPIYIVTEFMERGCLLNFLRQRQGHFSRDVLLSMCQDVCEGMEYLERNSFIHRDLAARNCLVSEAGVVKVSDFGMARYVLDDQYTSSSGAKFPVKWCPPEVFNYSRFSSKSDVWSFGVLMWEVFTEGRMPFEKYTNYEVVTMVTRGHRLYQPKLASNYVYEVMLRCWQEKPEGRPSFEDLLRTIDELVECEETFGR

SOCS1 = biological target: T4, SOCS1 (Homo sapiens, UniProt O15524)
T4 construct: made in house; host or cells: HEK293 (transient transfection), unpurified extract
T4 sequence (O15524 1-211): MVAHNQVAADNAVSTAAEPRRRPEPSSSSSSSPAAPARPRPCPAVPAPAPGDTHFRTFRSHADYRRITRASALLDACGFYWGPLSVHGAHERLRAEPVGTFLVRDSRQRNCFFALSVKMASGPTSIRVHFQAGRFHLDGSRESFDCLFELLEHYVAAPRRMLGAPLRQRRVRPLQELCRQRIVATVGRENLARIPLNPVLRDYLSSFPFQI

PLCG1(SH2dom.C-term.) = biological target: T5, PLCG1(SH2dom.C-term.) (Homo sapiens, UniProt P19174)
T5 construct: SH2dom.C-term. denotes SH2 domain closest to C-terminus of protein; made in house; host or cells: HEK293 (transient transfection, unpurified extract)
T5 sequence (P19174 668-756 limits assumed): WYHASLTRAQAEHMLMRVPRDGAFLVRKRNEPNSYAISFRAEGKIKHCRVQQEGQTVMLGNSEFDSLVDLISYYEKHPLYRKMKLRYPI

TXK = biological target: T6, TXK (Homo sapiens, UniProt P42681)
T6 construct: made in house; host or cells: HEK293 (transient transfection), unpurified extract
T6 sequence (P42681 1-527): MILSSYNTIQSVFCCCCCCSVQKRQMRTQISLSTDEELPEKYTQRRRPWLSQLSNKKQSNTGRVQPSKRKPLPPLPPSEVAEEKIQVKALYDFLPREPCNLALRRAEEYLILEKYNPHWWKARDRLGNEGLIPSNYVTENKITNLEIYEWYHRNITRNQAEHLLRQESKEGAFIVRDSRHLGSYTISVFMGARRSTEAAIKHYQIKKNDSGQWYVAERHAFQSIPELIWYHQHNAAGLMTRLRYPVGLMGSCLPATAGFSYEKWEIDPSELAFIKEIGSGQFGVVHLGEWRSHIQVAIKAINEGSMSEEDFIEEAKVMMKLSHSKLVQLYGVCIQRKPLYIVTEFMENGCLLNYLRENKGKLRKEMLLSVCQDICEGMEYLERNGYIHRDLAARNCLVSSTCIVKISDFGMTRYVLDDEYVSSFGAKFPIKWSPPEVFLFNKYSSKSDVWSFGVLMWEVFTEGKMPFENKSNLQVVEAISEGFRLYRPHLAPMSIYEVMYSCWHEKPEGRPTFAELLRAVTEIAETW

VAV1 = biological target: T7, VAV1 (Homo sapiens, UniProt P15498)
T7 construct: made in house; host or cells: HEK293 (transient transfection), unpurified extract
T7 sequence (P15498 1-845): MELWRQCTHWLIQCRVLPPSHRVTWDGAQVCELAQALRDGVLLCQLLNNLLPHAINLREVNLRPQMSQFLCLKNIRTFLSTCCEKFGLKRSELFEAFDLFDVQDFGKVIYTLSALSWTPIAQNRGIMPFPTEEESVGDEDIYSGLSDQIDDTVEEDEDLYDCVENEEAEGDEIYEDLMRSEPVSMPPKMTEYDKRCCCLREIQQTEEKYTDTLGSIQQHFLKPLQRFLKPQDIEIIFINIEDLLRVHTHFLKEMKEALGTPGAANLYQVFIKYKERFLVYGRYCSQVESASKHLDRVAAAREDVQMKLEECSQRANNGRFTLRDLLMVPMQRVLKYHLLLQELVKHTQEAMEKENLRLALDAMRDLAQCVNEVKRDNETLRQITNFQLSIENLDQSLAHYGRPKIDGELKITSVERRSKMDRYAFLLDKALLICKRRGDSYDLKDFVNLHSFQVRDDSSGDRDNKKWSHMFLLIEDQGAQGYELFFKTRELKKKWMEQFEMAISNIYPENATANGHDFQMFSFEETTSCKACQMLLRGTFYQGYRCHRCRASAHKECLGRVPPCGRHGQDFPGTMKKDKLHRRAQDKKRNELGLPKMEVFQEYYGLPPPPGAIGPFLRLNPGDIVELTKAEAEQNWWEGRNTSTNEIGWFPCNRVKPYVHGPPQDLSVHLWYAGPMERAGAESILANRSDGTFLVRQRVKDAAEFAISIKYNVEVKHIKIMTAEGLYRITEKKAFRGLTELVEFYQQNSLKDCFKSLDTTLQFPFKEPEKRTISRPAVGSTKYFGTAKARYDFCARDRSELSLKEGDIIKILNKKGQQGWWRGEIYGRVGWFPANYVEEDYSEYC

VAV2 = biological target: T8, VAV2 (Homo sapiens, UniProt P52735)
T8 construct: made in house; host or cells: HEK293 (transient transfection), unpurified extract
T8 sequence (P52735 1-878): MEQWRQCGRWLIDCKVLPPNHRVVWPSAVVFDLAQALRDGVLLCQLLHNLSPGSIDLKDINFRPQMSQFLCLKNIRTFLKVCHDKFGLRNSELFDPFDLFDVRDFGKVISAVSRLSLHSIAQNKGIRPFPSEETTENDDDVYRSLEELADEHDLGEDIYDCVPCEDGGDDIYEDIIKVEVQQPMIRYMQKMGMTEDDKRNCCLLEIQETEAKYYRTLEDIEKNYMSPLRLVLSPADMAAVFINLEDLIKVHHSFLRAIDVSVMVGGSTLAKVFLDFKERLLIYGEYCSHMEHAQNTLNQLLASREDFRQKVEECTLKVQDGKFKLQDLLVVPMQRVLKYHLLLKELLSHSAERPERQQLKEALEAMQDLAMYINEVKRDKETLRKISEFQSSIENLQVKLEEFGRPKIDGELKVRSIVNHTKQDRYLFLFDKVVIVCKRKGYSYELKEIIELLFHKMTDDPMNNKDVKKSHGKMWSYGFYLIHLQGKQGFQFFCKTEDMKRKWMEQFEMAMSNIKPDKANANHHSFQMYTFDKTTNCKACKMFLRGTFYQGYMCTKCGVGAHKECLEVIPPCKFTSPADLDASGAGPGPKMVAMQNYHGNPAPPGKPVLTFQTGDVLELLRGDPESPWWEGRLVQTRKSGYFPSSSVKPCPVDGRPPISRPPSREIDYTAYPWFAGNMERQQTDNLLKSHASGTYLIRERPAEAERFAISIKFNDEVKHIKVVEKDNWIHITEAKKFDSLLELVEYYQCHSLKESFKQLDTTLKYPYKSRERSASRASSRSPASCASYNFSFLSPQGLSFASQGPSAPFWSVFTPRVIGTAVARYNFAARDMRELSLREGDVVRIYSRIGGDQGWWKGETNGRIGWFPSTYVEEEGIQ

VAV3 = biological target: T9, VAV3 (Homo sapiens, UniProt Q9UKW4)
T9 construct: made in house; host or cells: HEK293 (transient transfection), unpurified extract
T9 sequence (Q9UKW4 1-847): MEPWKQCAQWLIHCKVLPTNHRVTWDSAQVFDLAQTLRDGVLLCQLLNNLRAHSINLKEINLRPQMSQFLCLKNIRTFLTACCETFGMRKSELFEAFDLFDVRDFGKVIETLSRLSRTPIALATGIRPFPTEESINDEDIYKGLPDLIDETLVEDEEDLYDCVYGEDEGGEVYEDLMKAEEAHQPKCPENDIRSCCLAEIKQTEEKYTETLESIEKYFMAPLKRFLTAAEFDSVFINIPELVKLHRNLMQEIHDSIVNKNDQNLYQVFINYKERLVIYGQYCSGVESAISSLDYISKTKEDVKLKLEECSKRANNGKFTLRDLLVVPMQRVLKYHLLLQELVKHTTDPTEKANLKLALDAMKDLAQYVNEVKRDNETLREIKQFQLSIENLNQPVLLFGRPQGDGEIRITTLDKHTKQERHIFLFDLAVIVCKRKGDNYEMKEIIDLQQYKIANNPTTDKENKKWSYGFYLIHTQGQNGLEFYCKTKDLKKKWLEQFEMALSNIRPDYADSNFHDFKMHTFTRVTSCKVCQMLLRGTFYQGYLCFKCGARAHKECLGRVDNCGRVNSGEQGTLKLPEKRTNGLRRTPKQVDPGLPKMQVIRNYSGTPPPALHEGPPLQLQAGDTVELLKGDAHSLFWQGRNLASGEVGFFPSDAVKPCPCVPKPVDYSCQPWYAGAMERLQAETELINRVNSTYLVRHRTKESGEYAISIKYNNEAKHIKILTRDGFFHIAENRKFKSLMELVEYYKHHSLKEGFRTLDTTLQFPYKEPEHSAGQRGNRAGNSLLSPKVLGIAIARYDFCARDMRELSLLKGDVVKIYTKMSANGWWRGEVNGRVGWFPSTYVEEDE

## CC(=O)N[C@@H](CCC(=O)O)C(=O)N1CCC[C@H]1C(=O)NCC(=O)N1CCC[C@H]1C(=O)N[C@@H](Cc1ccc(OP(=O)(O)O)cc1)C(=O)N[C@@H](C)C(=O)N[C@@H](CCC(N)=O)C(=O)N1CCC[C@H]1C(=O)N[C@@H](CO)C(=O)N[C@H](C(=O)N[C@@H](CC(N)=O)C(=O)N[C@H](C(N)=O)[C@@H](C)O)C(C)C (Ac-EPGP[pY]AQPSVNT-NH2)
CRKL
  Kd: 1200 ± 309 nM

## CC[C@H](C)[C@H](NC(=O)[C@H](Cc1c[nH]cn1)NC(=O)[C@H](CCC(=O)O)NC(C)=O)C(=O)N[C@@H](Cc1ccc(OP(=O)(O)O)cc1)C(=O)N[C@@H](CC(=O)O)C(=O)N[C@@H](CCC(=O)O)C(=O)N[C@H](C(=O)N[C@@H](C)C(=O)N[C@@H](C)C(=O)N[C@@H](CC(=O)O)C(N)=O)C(C)C [Ac-EHIpYDEVAAD-NH2]
NCK1
  Kd: 15.3 ± 5.07 nM
TEC
  Kd: 267 ± 66.3 nM

## CC(=O)N[C@@H](CS)C(=O)N[C@@H](CCC(N)=O)C(=O)N[C@H](C(=O)N[C@@H](Cc1ccc(OP(=O)(O)O)cc1)C(=O)N[C@@H](Cc1ccccc1)C(=O)N[C@H](C(=O)N[C@@H](Cc1ccc(O)cc1)C(=O)N[C@@H](CC(=O)O)C(=O)N1CCC[C@H]1C(=O)N[C@@H](Cc1ccc(O)cc1)C(=O)N[C@@H](CO)C(=O)N[C@@H](CCC(=O)O)C(N)=O)[C@@H](C)O)C(C)C (Ac-CQV[pY]FTYDPYSE-NH2)
SOCS1
  Kd: 1430 ± 426 nM

## CC(=O)N[C@@H](CC(=O)O)C(=O)N[C@H](C(=O)N[C@@H](CCC(=O)O)C(=O)N[C@H](C(=O)N[C@@H](Cc1ccc(OP(=O)(O)O)cc1)C(=O)N[C@@H](CCC(=O)O)C(=O)N[C@@H](CO)C(=O)N1CCC[C@H]1C(=O)N[C@@H](Cc1ccc(OP(=O)(O)O)cc1)C(=O)N[C@@H](C)C(=O)N[C@@H](CC(=O)O)C(=O)N1CCC[C@H]1C(=O)N[C@@H](CCC(=O)O)C(N)=O)C(C)C)[C@@H](C)O [Ac-DTEVpYESPpYADPE-NH2] (Ac-DTEV[pY]ESP[pY]ADPE-NH2)
PLCG1(SH2dom.C-term.)
  Kd: 2910 ± 2740 nM
TXK
  Kd: 4120 ± 637 nM
VAV1
  Kd: 1400 ± 193 nM
VAV2
  Kd: 95.1 ± 19.9 nM
VAV3
  Kd: 163 ± 48.2 nM
